According to US9796711B2, “Substituted pyrazolo[3,4-b]pyridin-6-carboxylic acids and method of use” (AbbVie S.àr.l., priority 2015, dated 2017):

Legend:
[1] = molecular target: T1, ΔF508-CFTR (Homo sapiens, UniProt P13569, DEL508-508); assay: CFTR cell surface levels using HRP-tagged ΔF508-CFTR expressing CFBE cells, in the presence of a co-corrector; format: cell-based; conditions: HRP-tagged ΔF508-CFTR expressing CFBE cells, in the presence of 3 μM co-corrector; for EC50: read-out: EC50
T1 construct: host or cells: CFBE41o-, doxycycline-inducible
Procedure, shortened: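 Cells were seeded with 0.5 μg/mL doxycycline and held 68 h at 37 °C. Test compounds plus 3 μM co-corrector (final 0.1% DMSO) were then added for 20 h at 33 °C. Washed cells received HRP substrate, and luminescence was normalized between DMSO and 3 μM co-corrector controls.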

[2] = molecular target: T1, ΔF508-CFTR; assay: CFTR cell surface levels using HRP-tagged ΔF508-CFTR expressing CFBE cells, intrinsic corrector capacity; format: cell-based; conditions: for EC50: read-out: EC50
Source text: Measuring CFTR Cell Surface Levels Using HRP-Tagged AF508-CFTR Expressing CFBE Cells
The HRP-tagged AF508-CFTR cell assay measures the expression of CFTR-ΔF508 at the plasma membrane. CFTR-ΔF508 has a folding defect leading to absence of protein at the plasma membrane. This assay is used to evaluate the capacity of compounds to increase the expression of CFTR-ΔF508 at the plasma membrane. The CFTR-ΔF508 is tagged with HRP (horse radish peroxidase enzyme) within the ECL4 (Extracellular loop 4) of CFTR (Phuan, P.-W. et al. Synergy-based small-molecule screen using a human lung epithelial cell line yields AF508-CFTR correctors that augment VX-809 maximal efficacy. Mol. Pharmacol. 86, 42-51 (2014)). When HRP-tagged AF508-CFTR is present at the plasma membrane, the HRP enzyme activity can be measured. The amount of CFTR-ΔF508 that can be rescued to the plasma membrane is correlated with the amount of functional enzyme that can be measured.
There are several ways to measure the capacity of compounds to rescue CFTR-ΔF508 to the plasma membrane; either compounds are evaluated on their own and the impact on plasma membrane levels is measured or compounds are evaluated in combination with a co-corrector, i.e. a compound that rescues CFTR-ΔF508 to the plasma membrane but rescue can be enhanced by addition of compounds due to a complementary mode of action.
Activity of Compounds for their Intrinsic Corrector Capacity:
For this purpose doxycycline-inducible AF508-CFTR-HRP expressing CFBE4lo-cells (obtained from Gergely Lukacs, McGill University) were maintained in MEM (Gibco; 31095) supplemented with 10% fetal bovine serum (Hyclone; SV30160.03) under puromycin (3 μg/mL) and G418 selection (0.2 mg/mL). For compound testing, cells were seeded at 4000 cells/well in white 384-well plates (Greiner; 781080) in 50 μL medium containing 0.5 μg/mL doxycycline and incubated for 68 hours at 37° C., 5% CO2. On day four, 10 μL test compounds diluted in PBS were added to the plates at a final DMSO concentration of 0.1%. All compound plates contained negative controls (DMSO) and positive controls (3 μM corrector, 3-[(2R,4R)-4-({[1-(2,2-difluoro-1,3-benzodioxol-5-yl)cyclopropyl]carbonyl}amino)-7-methoxy-3,4-dihydro-2H-chromen-2-yl]benzoic acid). Cell plates were incubated at 33° C., 5% CO2 for 20 hours. On day five, the cells were washed five times with phosphate-buffered saline, and HRP activity was assayed by the addition of 50 μL/well of HRP substrate (SuperSignal™ West Pico Chemiluminescent Substrate, Thermo Scientific; 34080). After incubation for 15 minutes in the dark, chemiluminescence was measured using a plate reader (EnVision®, Perkin Elmer). Raw data were normalized to percentage activity values using the equation: 100×(Sample−Negative control)/(Positive control−Negative Control).

[3] = HRP-tagged ΔF508-CFTR expressing CFBE cells, intrinsic corrector capacity (no co-corrector), 33° C., 20 hours
[4] = HRP-tagged ΔF508-CFTR CFBE41o- cells, compounds alone (intrinsic corrector capacity), 20 hours at 33° C., positive control 3 μM corrector
[5] = HRP-tagged ΔF508-CFTR CFBE41o- cells, compounds alone (intrinsic corrector capacity), 20 hours at 33° C.

T1 sequence (P13569 with tags, fused parts or gaps DEL508-508): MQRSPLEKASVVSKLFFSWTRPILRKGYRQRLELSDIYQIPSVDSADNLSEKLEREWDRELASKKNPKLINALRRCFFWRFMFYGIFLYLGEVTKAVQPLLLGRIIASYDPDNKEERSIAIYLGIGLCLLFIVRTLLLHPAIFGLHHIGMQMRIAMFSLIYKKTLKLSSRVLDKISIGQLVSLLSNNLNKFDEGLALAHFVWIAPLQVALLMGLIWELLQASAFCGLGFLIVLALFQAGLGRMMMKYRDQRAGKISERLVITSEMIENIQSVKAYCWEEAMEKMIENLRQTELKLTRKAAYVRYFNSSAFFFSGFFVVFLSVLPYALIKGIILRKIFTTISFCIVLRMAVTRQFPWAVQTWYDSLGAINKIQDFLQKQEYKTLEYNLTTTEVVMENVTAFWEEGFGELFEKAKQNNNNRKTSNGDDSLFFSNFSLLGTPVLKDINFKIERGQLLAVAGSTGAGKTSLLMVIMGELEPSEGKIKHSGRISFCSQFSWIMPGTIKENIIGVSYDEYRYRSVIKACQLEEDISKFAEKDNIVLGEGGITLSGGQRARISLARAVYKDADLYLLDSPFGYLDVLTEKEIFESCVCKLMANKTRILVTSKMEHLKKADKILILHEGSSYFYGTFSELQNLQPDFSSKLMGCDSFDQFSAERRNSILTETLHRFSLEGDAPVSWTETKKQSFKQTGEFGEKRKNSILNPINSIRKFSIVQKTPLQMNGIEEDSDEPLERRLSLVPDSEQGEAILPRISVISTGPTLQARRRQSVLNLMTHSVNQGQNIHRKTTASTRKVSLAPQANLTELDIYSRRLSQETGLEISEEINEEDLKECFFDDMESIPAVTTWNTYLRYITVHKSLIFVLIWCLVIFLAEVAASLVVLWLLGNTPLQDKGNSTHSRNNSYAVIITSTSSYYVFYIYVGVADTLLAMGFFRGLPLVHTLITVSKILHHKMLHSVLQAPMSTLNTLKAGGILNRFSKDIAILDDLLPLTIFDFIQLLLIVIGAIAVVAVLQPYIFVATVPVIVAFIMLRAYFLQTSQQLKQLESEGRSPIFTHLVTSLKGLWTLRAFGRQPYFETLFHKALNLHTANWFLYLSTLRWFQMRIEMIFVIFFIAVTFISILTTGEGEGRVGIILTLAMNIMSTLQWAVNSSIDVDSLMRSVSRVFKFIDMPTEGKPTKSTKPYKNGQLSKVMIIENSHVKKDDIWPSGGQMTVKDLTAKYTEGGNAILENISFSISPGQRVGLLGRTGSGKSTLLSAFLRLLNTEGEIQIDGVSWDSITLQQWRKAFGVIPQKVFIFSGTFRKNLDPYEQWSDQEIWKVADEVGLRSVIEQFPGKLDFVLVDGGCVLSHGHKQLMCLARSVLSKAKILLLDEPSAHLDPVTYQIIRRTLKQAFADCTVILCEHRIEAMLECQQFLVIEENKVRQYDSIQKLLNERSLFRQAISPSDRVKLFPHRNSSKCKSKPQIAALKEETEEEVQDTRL

SMILES | % Activation [1] | EC50 [1] | % Activation [2, 3] | EC50 [2, 3] | % Activation [2, 4] | EC50 [2, 5]
COCC(C)N1CCN(c2cc(C(=O)O)nc3c2c(C(C)C)nn3-c2ccc(F)cc2)CC1 (stereo not shown) [compound 793, 1-(4-fluorophenyl)-4-[4-(1-methoxypropan-2-yl)piperazin-1-yl]-3-(propan-2-yl)-1H-pyrazolo[3,4-b]pyridine-6-carboxylic acid] | 363.5% | 1.67 µM | 157.7% | 1.67 µM | – | –
CC(C)c1nn(C2CCCCC2)c2nc(C(=O)O)cc(-c3ccnn3C)c12 [compound 370, 1-cyclohexyl-4-(1-methyl-1H-pyrazol-5-yl)-3-(propan-2-yl)-1H-pyrazolo[3,4-b]pyridine-6-carboxylic acid] | 133% | > 10 µM | – | – | 19.18% | > 10 µM
COC1(C)CCN(c2cc(C(=O)O)nc3c2c(C(C)C)nn3-c2ccc(F)cc2)CC1 [compound 397, 1-(4-fluorophenyl)-4-(4-methoxy-4-methylpiperidin-1-yl)-3-(propan-2-yl)-1H-pyrazolo[3,4-b]pyridine-6-carboxylic acid] | 217.3% | 0.299 µM | 73.11% | 0.645 µM | – | –
CC1(C)CC(c2nn(-c3ccccc3)c3nc(C(=O)O)cc(-c4ccc(N5CCC(C#N)CC5)nc4)c23)C1 [compound 430, 4-[6-(4-cyanopiperidin-1-yl)pyridin-3-yl]-3-(3,3-dimethylcyclobutyl)-1-phenyl-1H-pyrazolo[3,4-b]pyridine-6-carboxylic acid] | 342.17% | 0.243 µM | 175.73% | 0.373 µM | – | –
O=C(O)c1cc(N2CCC(N3CCCC(F)C3)CC2)c2c(C3CCC3)nn(-c3ccc(F)cc3)c2n1 (stereo not shown) [compound 872, 3-cyclobutyl-4-(3-fluoro[1,4′-bipiperidin]-1′-yl)-1-(4-fluorophenyl)-1H-pyrazolo[3,4-b]pyridine-6-carboxylic acid] | 548.45% | 0.172 µM | 368.7% | 0.591 µM | – | –
O=C(O)c1cc(N2CCOC(CN3CCCCC3)C2)c2c(C3CCC3)nn(-c3ccccc3)c2n1 (stereo not shown) [compound 556, 3-cyclobutyl-1-phenyl-4-{2-[(piperidin-1-yl)methyl]morpholin-4-yl}-1H-pyrazolo[3,4-b]pyridine-6-carboxylic acid] | 324% | 0.682 µM | 140.1% | 0.838 µM | – | –
CC(C)Oc1nn(-c2ccccc2)c2nc(C(=O)O)cc(-c3ccc(N4CCOCC4)cc3)c12 [compound 390, 4-[4-(morpholin-4-yl)phenyl]-1-phenyl-3-[(propan-2-yl)oxy]-1H-pyrazolo[3,4-b]pyridine-6-carboxylic acid] | 362% | 0.272 µM | – | – | 177.8% | 0.585 µM
CCN(CC)CC1(N2CC(Oc3cc(C(=O)O)nc4c3c(C3CCC3)nn4-c3ccccc3)C2)COC1 [compound 646, 3-cyclobutyl-4-[(1-{3-[(diethylamino)methyl]oxetan-3-yl}azetidin-3-yl)oxy]-1-phenyl-1H-pyrazolo[3,4-b]pyridine-6-carboxylic acid] | 198% | 3.33 µM | 45.39% | 3.33 µM | – | –
O=C(O)c1cc(OCCN2CCC3(CC2)OCCO3)c2c(C3CCC3)nn(-c3ccccc3)c2n1 [compound 623, 3-cyclobutyl-4-[2-(1,4-dioxa-8-azaspiro[4.5]decan-8-yl)ethoxy]-1-phenyl-1H-pyrazolo[3,4-b]pyridine-6-carboxylic acid] | 308.3% | 0.501 µM | 106.8% | 1.16 µM | – | –
CN(C)CCOCCOc1cc(C(=O)O)nc2c1c(C1CCC1)nn2-c1ccccc1 [compound 614, 3-cyclobutyl-4-{2-[2-(dimethylamino)ethoxy]ethoxy}-1-phenyl-1H-pyrazolo[3,4-b]pyridine-6-carboxylic acid] | 176.9% | 3.33 µM | 32.02% | 3.33 µM | – | –
Cc1nn(-c2ccccc2)c2nc(C(=O)O)cc(-c3ccc(N4CCC(O)C4)cc3)c12 (stereo not shown) [compound 153, 4-[4-(3-hydroxypyrrolidin-1-yl)phenyl]-3-methyl-1-phenyl-1H-pyrazolo[3,4-b]pyridine-6-carboxylic acid] | 386.85% | 1.2 µM | – | – | 198.45% | 1.53 µM
CC(C)Oc1cc(-n2nc(C3CCC3)c3c(N4CCC(N5CCOCC5)CC4)cc(C(=O)O)nc32)ccn1 [compound 855, 3-cyclobutyl-4-[4-(morpholin-4-yl)piperidin-1-yl]-1-{2-[(propan-2-yl)oxy]pyridin-4-yl}-1H-pyrazolo[3,4-b]pyridine-6-carboxylic acid] | 490.9% | 0.0872 µM | 304.2% | 0.197 µM | – | –
Cc1nn(C2CCCCC2)c2nc(C(=O)O)cc(-c3cnc(N4CCOCC4)nc3)c12 [compound 65, 1-cyclohexyl-3-methyl-4-[2-(morpholin-4-yl)pyrimidin-5-yl]-1H-pyrazolo[3,4-b]pyridine-6-carboxylic acid] | 258.2% | 2.31 µM | – | – | 103.02% | 3.34 µM
COCCN(CCOC)c1ccc(-c2cc(C(=O)O)nc3c2c(C(C)C)nn3C2CCCCC2)cn1 [compound 275, 4-{6-[bis(2-methoxyethyl)amino]pyridin-3-yl}-1-cyclohexyl-3-(propan-2-yl)-1H-pyrazolo[3,4-b]pyridine-6-carboxylic acid] | 371.35% | 0.736 µM | – | – | 173.8% | 0.923 µM
Cc1cccc(-n2nc(C(C)C)c3c(N4CC5CN(C(=O)OC(C)(C)C)CC5C4)cc(C(=O)O)nc32)c1 (stereo not shown) [compound 216, 4-[5-(tert-butoxycarbonyl)hexahydropyrrolo[3,4-c]pyrrol-2(1H)-yl]-1-(3-methylphenyl)-3-(propan-2-yl)-1H-pyrazolo[3,4-b]pyridine-6-carboxylic acid] | 431.7% | 1.11 µM | – | – | 161% | 1.01 µM
O=C(O)c1cc(N2CCC(N3CCOCC3)CC2)c2c(C3CCC3)nn(-c3cccc(F)c3)c2n1 [compound 825, 3-cyclobutyl-1-(3-fluorophenyl)-4-[4-(morpholin-4-yl)piperidin-1-yl]-1H-pyrazolo[3,4-b]pyridine-6-carboxylic acid] | 455.85% | 0.144 µM | 289% | 0.207 µM | – | –
CC(=O)N1CC[C@H]2CN(c3cc(C(=O)O)nc4c3c(C3CCC3)nn4-c3ccccc3)CC[C@H]21 (single isomer, unassigned) [compound 588] | 469.3% | 2.42 µM | 232.6% | 3.33 µM | – | –
CC(C)c1nn(-c2ccc(F)cc2)c2nc(C(=O)O)cc(N3CCC(CO)CC3)c12 [compound 394, 1-(4-fluorophenyl)-4-[4-(hydroxymethyl)piperidin-1-yl]-3-(propan-2-yl)-1H-pyrazolo[3,4-b]pyridine-6-carboxylic acid] | 392.57% | 0.677 µM | – | – | 235.1% | 1.49 µM
Cc1nn(-c2ccccc2)c2nc(C(=O)O)cc(-c3ccc(N4CC(N(C)C)C4)cc3)c12 [compound 72] | 308.1% | 3.34 µM | – | – | 91.87% | 2.25 µM
